# According to US20260232767A1, “INTERLEUKIN-23 RECEPTOR ANTAGONIST PEPTIDES FOR USE IN THE TREATMENT OF PSORIASIS” (Janssen Pharmaceutica NV, priority 2023, published 2026):
# Tested on: subjects with moderate-to-severe plaque psoriasis
# Experiment: Hematology and chemistry laboratory values by CTCAE grade
# Type: in vivo, human
# Details: through Week 56
# Source text: The proportion of participants who discontinued study intervention due to one or more AEs was low (n=4). All events were singular in nature with no apparent dose-dependent increase (Table 48 and Table 52). The number of participants with abnormal hematology and chemistry laboratory values with CTCAE toxicity grade≥3 were low through the end of the study (Table 43 through Table 46). There was no apparent dose-dependent increase in laboratory abnormality occurrences.
smiles,measurement,setting,value
"CC(=O)NCCCC[C@@H]1NC(=O)[C@H](Cc2c[nH]c3c(C)cccc23)NC(=O)[C@H]([C@@H](C)O)NC(=O)[C@H](CC(N)=O)NC(=O)[C@@H](NC(C)=O)C(C)(C)SSC(C)(C)[C@@H](C(=O)N[C@@H](Cc2ccc(OCCN)cc2)C(=O)N[C@@H](Cc2ccc3ccccc3c2)C(=O)NC2(C(=O)N[C@@H](CCC(=O)O)C(=O)N[C@@H](CC(N)=O)C(=O)N[C@@H](Cc3cccnc3)C(=O)N(C)CC(N)=O)CCOCC2)NC1=O [IL-23 receptor antagonist peptide, Ac-[Pen]*-N-T-[W(7-Me)]-[Lys(Ac)]-[Pen]*-Phe[4-(2-aminoethoxy)]-[2-Nal]-[THP]-E-N-[3-Pal]-Sarc-NH2 (*[Pen]-[Pen]* formdisulfidebond)]",Platelets (×10^9/L) (decreased): subjects with Grade 1,25 mg QD,5
same,Platelets (×10^9/L) (decreased): subjects with Grade 2,25 mg QD,0
same,Platelets (×10^9/L) (decreased): subjects with Grade 3,25 mg QD,0
same,Platelets (×10^9/L) (decreased): subjects with Grade 4,25 mg QD,0
same,Platelets (×10^9/L) (decreased): subjects with postbaseline maximum toxicity grade >0,25 mg QD,5
same,Potassium (decreased): Subjects with Grade 1,25 mg QD,0
same,Potassium (decreased): Subjects with Grade 2,25 mg QD,0
same,Potassium (decreased): Subjects with Grade 3,25 mg QD,0
same,Potassium (decreased): Subjects with Grade 4,25 mg QD,0
same,Potassium (decreased): Subjects with postbaseline maximum toxicity grade >0,25 mg QD,0
same,Potassium (increased): Subjects with Grade 3,25 mg QD,0
same,Potassium (increased): Subjects with Grade 4,25 mg QD,0
same,Potassium (increased): Subjects with postbaseline maximum toxicity grade >0,25 mg QD,7
same,Sodium (decreased): Subjects with Grade 2,25 mg QD,0
same,Sodium (decreased): Subjects with Grade 3,25 mg QD,0
same,Sodium (decreased): Subjects with Grade 4,25 mg QD,0
same,Sodium (increased): Subjects with Grade 2,25 mg QD,0
same,Sodium (increased): Subjects with Grade 3,25 mg QD,0
same,Sodium (increased): Subjects with Grade 4,25 mg QD,0
same,Total Bilirubin (increased): Subjects with Grade 2,25 mg QD,0
same,Total Bilirubin (increased): Subjects with Grade 3,25 mg QD,0
same,Total Bilirubin (increased): Subjects with Grade 4,25 mg QD,0
same,Triglycerides (increased): Subjects with Grade 4,25 mg QD,0
same,WBC (×10^9/L) (decreased): subjects with Grade 2,25 mg QD,0
same,WBC (×10^9/L) (decreased): subjects with Grade 3,25 mg QD,0
same,WBC (×10^9/L) (decreased): subjects with Grade 4,25 mg QD,0
same,WBC (×10^9/L) (increased): subjects with Grade 1,25 mg QD,0
same,WBC (×10^9/L) (increased): subjects with Grade 2,25 mg QD,0
same,WBC (×10^9/L) (increased): subjects with Grade 3,25 mg QD,0
same,WBC (×10^9/L) (increased): subjects with Grade 4,25 mg QD,0
same,WBC (×10^9/L) (increased): subjects with postbaseline maximum toxicity grade >0,25 mg QD,0
same,Alanine Aminotransferase (increased): Subjects with Grade 2,50 mg QD,0
same,Alanine Aminotransferase (increased): Subjects with Grade 3,50 mg QD,0
same,Alanine Aminotransferase (increased): Subjects with Grade 4,50 mg QD,0
same,Albumin (decreased): Subjects with Grade 1,50 mg QD,0
same,Albumin (decreased): Subjects with Grade 2,50 mg QD,0
same,Albumin (decreased): Subjects with Grade 3,50 mg QD,0
same,Albumin (decreased): Subjects with Grade 4,50 mg QD,0
same,Albumin (decreased): Subjects with postbaseline maximum toxicity grade >0,50 mg QD,0
same,Alkaline Phosphatase (increased): Subjects with Grade 2,50 mg QD,0
same,Alkaline Phosphatase (increased): Subjects with Grade 3,50 mg QD,0
same,Alkaline Phosphatase (increased): Subjects with Grade 4,50 mg QD,0
same,Aspartate Aminotransferase (increased): Subjects with Grade 2,50 mg QD,0
same,Aspartate Aminotransferase (increased): Subjects with Grade 3,50 mg QD,0
same,Aspartate Aminotransferase (increased): Subjects with Grade 4,50 mg QD,0
same,Calcium corrected (decreased): Subjects with Grade 2,50 mg QD,0
same,Calcium corrected (decreased): Subjects with Grade 3,50 mg QD,0
same,Calcium corrected (decreased): Subjects with Grade 4,50 mg QD,0
same,Calcium corrected (increased): Subjects with Grade 1,50 mg QD,0
same,Calcium corrected (increased): Subjects with Grade 2,50 mg QD,0
same,Calcium corrected (increased): Subjects with Grade 3,50 mg QD,0
same,Calcium corrected (increased): Subjects with Grade 4,50 mg QD,0
same,Calcium corrected (increased): Subjects with postbaseline maximum toxicity grade >0,50 mg QD,0
same,Cholesterol (increased): Subjects with Grade 2,50 mg QD,0
same,Cholesterol (increased): Subjects with Grade 3,50 mg QD,0
same,Cholesterol (increased): Subjects with Grade 4,50 mg QD,0
same,Creatine Kinase (increased): Subjects with Grade 3,50 mg QD,0
same,Creatinine (increased): Subjects with Grade 2,50 mg QD,0
same,Creatinine (increased): Subjects with Grade 3,50 mg QD,0
same,Creatinine (increased): Subjects with Grade 4,50 mg QD,0
same,Gamma Glutamyl Transferase (increased): Subjects with Grade 2,50 mg QD,0
same,Gamma Glutamyl Transferase (increased): Subjects with Grade 3,50 mg QD,0
same,Gamma Glutamyl Transferase (increased): Subjects with Grade 4,50 mg QD,0
same,Glucose (decreased): Subjects with Grade 2,50 mg QD,0
same,Glucose (decreased): Subjects with Grade 3,50 mg QD,0
same,Glucose (decreased): Subjects with Grade 4,50 mg QD,0
same,Hemoglobin (g/L) (decreased): subjects with Grade 3,50 mg QD,0
same,Hemoglobin (g/L) (decreased): subjects with Grade 4,50 mg QD,0
same,Hemoglobin (g/L) (decreased): subjects with postbaseline maximum toxicity grade >0,50 mg QD,5
same,Hemoglobin (g/L) (increased): subjects with Grade 1,50 mg QD,0
same,Hemoglobin (g/L) (increased): subjects with Grade 2,50 mg QD,0
same,Hemoglobin (g/L) (increased): subjects with Grade 3,50 mg QD,0
same,Hemoglobin (g/L) (increased): subjects with Grade 4,50 mg QD,0
same,Hemoglobin (g/L) (increased): subjects with postbaseline maximum toxicity grade >0,50 mg QD,0
same,Lymphocytes (×10^9/L) (decreased): subjects with Grade 3,50 mg QD,0
same,Lymphocytes (×10^9/L) (decreased): subjects with Grade 4,50 mg QD,0
same,Lymphocytes (×10^9/L) (increased): subjects with Grade 1,50 mg QD,0
same,Lymphocytes (×10^9/L) (increased): subjects with Grade 2,50 mg QD,0
same,Lymphocytes (×10^9/L) (increased): subjects with Grade 3,50 mg QD,0
same,Lymphocytes (×10^9/L) (increased): subjects with Grade 4,50 mg QD,0
same,Lymphocytes (×10^9/L) (increased): subjects with postbaseline maximum toxicity grade >0,50 mg QD,0
same,Magnesium (decreased): Subjects with Grade 1,50 mg QD,0
same,Magnesium (decreased): Subjects with Grade 2,50 mg QD,0
same,Magnesium (decreased): Subjects with Grade 3,50 mg QD,0
same,Magnesium (decreased): Subjects with Grade 4,50 mg QD,0
same,Magnesium (decreased): Subjects with postbaseline maximum toxicity grade >0,50 mg QD,0
same,Magnesium (increased): Subjects with Grade 2,50 mg QD,0
same,Magnesium (increased): Subjects with Grade 3,50 mg QD,0
same,Magnesium (increased): Subjects with Grade 4,50 mg QD,0
same,Neutrophils (×10^9/L) (decreased): subjects with Grade 3,50 mg QD,0
same,Neutrophils (×10^9/L) (decreased): subjects with Grade 4,50 mg QD,0
same,Platelets (×10^9/L) (decreased): subjects with Grade 1,50 mg QD,0
same,Platelets (×10^9/L) (decreased): subjects with Grade 2,50 mg QD,0
same,Platelets (×10^9/L) (decreased): subjects with Grade 3,50 mg QD,0
same,Platelets (×10^9/L) (decreased): subjects with Grade 4,50 mg QD,0
same,Platelets (×10^9/L) (decreased): subjects with postbaseline maximum toxicity grade >0,50 mg QD,0
same,Potassium (decreased): Subjects with Grade 1,50 mg QD,0
same,Potassium (decreased): Subjects with Grade 2,50 mg QD,0
same,Potassium (decreased): Subjects with Grade 3,50 mg QD,0
same,Potassium (decreased): Subjects with Grade 4,50 mg QD,0
same,Potassium (decreased): Subjects with postbaseline maximum toxicity grade >0,50 mg QD,0
same,Potassium (increased): Subjects with Grade 2,50 mg QD,0
same,Potassium (increased): Subjects with Grade 4,50 mg QD,0
same,Sodium (decreased): Subjects with Grade 1,50 mg QD,0
same,Sodium (decreased): Subjects with Grade 2,50 mg QD,0
same,Sodium (decreased): Subjects with Grade 3,50 mg QD,0
same,Sodium (decreased): Subjects with Grade 4,50 mg QD,0
same,Sodium (decreased): Subjects with postbaseline maximum toxicity grade >0,50 mg QD,0
same,Sodium (increased): Subjects with Grade 1,50 mg QD,0
same,Sodium (increased): Subjects with Grade 2,50 mg QD,0
same,Sodium (increased): Subjects with Grade 3,50 mg QD,0
same,Sodium (increased): Subjects with Grade 4,50 mg QD,0
same,Sodium (increased): Subjects with postbaseline maximum toxicity grade >0,50 mg QD,0
same,Total Bilirubin (increased): Subjects with Grade 3,50 mg QD,0
same,Total Bilirubin (increased): Subjects with Grade 4,50 mg QD,0
same,Total Bilirubin (increased): Subjects with postbaseline maximum toxicity grade >0,50 mg QD,5
same,Triglycerides (increased): Subjects with Grade 1,50 mg QD,0
same,Triglycerides (increased): Subjects with Grade 4,50 mg QD,0
same,WBC (×10^9/L) (decreased): subjects with Grade 3,50 mg QD,0
same,WBC (×10^9/L) (decreased): subjects with Grade 4,50 mg QD,0
same,WBC (×10^9/L) (increased): subjects with Grade 1,50 mg QD,0
same,WBC (×10^9/L) (increased): subjects with Grade 2,50 mg QD,0
same,WBC (×10^9/L) (increased): subjects with Grade 3,50 mg QD,0
same,WBC (×10^9/L) (increased): subjects with Grade 4,50 mg QD,0
same,WBC (×10^9/L) (increased): subjects with postbaseline maximum toxicity grade >0,50 mg QD,0
same,Alanine Aminotransferase (increased): Subjects with Grade 1,100 mg BID,10
same,Alanine Aminotransferase (increased): Subjects with Grade 3,100 mg BID,0
same,Alanine Aminotransferase (increased): Subjects with Grade 4,100 mg BID,0
same,Albumin (decreased): Subjects with Grade 1,100 mg BID,0
same,Albumin (decreased): Subjects with Grade 2,100 mg BID,0
same,Albumin (decreased): Subjects with Grade 3,100 mg BID,0
same,Albumin (decreased): Subjects with Grade 4,100 mg BID,0
same,Albumin (decreased): Subjects with postbaseline maximum toxicity grade >0,100 mg BID,0
same,Alkaline Phosphatase (increased): Subjects with Grade 1,100 mg BID,0
same,Alkaline Phosphatase (increased): Subjects with Grade 2,100 mg BID,0
same,Alkaline Phosphatase (increased): Subjects with Grade 3,100 mg BID,0
same,Alkaline Phosphatase (increased): Subjects with Grade 4,100 mg BID,0
same,Alkaline Phosphatase (increased): Subjects with postbaseline maximum toxicity grade >0,100 mg BID,0
same,Aspartate Aminotransferase (increased): Subjects with Grade 1,100 mg BID,7
same,Aspartate Aminotransferase (increased): Subjects with Grade 4,100 mg BID,0
same,Aspartate Aminotransferase (increased): Subjects with postbaseline maximum toxicity grade >0,100 mg BID,9
same,Calcium corrected (decreased): Subjects with Grade 3,100 mg BID,0
same,Calcium corrected (decreased): Subjects with Grade 4,100 mg BID,0
same,Calcium corrected (increased): Subjects with Grade 1,100 mg BID,0
same,Calcium corrected (increased): Subjects with Grade 2,100 mg BID,0
same,Calcium corrected (increased): Subjects with Grade 3,100 mg BID,0
same,Calcium corrected (increased): Subjects with Grade 4,100 mg BID,0
same,Calcium corrected (increased): Subjects with postbaseline maximum toxicity grade >0,100 mg BID,0
same,Cholesterol (increased): Subjects with Grade 2,100 mg BID,0
same,Cholesterol (increased): Subjects with Grade 3,100 mg BID,0
same,Cholesterol (increased): Subjects with Grade 4,100 mg BID,0
